{"source": "ChEMBL document CHEMBL3351808", "about": "“Thiophenes, polyacetylenes and terpenes from the aerial parts of Eclipata prostrate” (Bioorg Med Chem, 2014)", "key": {"[1]": {"molecular_target": "T1, Nuclear factor NF-kappa-B complex (Homo sapiens) (UniProt Q00653+P19838+Q04206)", "T1 sequence (P19838 whole entry, looked up)": "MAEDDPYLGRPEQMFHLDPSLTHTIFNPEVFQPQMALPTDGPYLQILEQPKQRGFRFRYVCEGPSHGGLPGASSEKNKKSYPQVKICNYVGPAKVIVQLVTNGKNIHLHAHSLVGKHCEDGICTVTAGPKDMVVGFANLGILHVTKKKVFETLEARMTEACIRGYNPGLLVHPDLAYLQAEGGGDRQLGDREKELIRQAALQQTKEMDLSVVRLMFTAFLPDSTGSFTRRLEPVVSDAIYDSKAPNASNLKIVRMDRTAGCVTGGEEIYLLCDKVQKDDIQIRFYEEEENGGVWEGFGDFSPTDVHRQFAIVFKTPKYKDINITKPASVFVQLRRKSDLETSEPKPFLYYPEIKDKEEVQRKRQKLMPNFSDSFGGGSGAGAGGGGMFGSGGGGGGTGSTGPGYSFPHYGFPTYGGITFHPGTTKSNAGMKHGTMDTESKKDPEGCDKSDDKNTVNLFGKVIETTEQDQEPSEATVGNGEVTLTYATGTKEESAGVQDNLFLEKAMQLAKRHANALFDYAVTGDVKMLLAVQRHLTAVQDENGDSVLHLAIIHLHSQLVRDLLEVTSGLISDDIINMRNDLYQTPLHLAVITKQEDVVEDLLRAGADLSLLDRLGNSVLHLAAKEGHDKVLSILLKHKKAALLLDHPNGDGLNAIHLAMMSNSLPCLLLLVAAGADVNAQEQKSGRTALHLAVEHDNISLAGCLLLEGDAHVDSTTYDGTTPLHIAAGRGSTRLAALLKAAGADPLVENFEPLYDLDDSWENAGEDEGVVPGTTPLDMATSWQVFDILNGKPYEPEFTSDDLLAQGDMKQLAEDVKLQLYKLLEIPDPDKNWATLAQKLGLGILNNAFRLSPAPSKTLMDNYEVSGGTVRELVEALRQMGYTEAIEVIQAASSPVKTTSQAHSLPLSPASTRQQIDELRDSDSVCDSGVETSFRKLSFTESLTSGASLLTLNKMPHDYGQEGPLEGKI", "T1 sequence (Q00653 whole entry, looked up)": "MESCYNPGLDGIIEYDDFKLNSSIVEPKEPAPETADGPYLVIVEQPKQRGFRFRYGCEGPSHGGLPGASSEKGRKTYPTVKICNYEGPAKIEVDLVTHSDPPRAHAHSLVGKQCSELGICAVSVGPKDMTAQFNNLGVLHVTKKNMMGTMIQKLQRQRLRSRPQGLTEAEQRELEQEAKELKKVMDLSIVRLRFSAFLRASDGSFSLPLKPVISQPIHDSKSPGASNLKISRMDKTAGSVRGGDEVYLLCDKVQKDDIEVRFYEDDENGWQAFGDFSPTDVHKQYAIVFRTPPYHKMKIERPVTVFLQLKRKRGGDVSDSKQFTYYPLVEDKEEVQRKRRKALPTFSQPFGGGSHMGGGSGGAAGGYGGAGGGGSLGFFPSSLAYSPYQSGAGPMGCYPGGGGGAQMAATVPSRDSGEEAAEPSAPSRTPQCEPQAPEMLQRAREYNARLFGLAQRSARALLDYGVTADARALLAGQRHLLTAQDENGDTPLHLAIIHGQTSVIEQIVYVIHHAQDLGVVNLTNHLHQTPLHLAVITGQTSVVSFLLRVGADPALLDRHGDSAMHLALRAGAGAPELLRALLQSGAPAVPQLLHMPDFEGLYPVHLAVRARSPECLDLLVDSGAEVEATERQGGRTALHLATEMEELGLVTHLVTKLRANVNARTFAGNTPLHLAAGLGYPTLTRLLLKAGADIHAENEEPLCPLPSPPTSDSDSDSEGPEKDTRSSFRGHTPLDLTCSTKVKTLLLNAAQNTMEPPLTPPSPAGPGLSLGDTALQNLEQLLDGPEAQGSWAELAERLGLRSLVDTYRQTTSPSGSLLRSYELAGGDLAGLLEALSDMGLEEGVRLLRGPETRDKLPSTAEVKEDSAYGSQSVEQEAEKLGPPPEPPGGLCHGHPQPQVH", "T1 sequence (Q04206 whole entry, looked up)": "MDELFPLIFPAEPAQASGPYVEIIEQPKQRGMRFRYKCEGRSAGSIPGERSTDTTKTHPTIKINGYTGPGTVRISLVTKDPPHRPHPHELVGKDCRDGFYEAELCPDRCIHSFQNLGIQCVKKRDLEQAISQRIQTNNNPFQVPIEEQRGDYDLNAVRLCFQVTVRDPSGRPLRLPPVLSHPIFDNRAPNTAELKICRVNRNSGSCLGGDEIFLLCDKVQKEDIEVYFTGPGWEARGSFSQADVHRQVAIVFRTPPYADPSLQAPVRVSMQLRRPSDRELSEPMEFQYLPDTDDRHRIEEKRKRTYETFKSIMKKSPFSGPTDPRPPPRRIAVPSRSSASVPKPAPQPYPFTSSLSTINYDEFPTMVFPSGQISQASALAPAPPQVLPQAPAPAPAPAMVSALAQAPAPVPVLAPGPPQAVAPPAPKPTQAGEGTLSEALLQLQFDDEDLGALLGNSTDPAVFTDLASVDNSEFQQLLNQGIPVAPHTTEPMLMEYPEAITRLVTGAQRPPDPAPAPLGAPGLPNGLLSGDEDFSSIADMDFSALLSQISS", "test": "Inhibition of NFkappaB (unknown origin) expressed in LPS-stimulated HEK293-NF-kappaB-luc cells assessed as luminescence signals measured by relative light units at 500 ug/mL pre-treated for 4 hrs before LPS challenge for 24 hrs by luciferase assay", "type": "cell-based"}, "[2]": {"molecular_target": "T1, Nuclear factor NF-kappa-B complex (Homo sapiens)", "test": "Inhibition of NFkappaB (unknown origin) expressed in LPS-stimulated HEK293-NF-kappaB-luc cells assessed as luminescence signals measured by relative light units at 100 ug/mL pre-treated for 4 hrs before LPS challenge for 24 hrs by luciferase assay", "type": "cell-based"}, "[3]": {"molecular_target": "T1, Nuclear factor NF-kappa-B complex (Homo sapiens)", "test": "Inhibition of NFkappaB (unknown origin) expressed in LPS-stimulated HEK293-NF-kappaB-luc cells assessed as luminescence signals measured by relative light units at 1 ug/mL pre-treated for 4 hrs before LPS challenge for 24 hrs by luciferase assay", "type": "cell-based"}, "[4]": {"molecular_target": "T1, Nuclear factor NF-kappa-B complex (Homo sapiens)", "test": "Inhibition of NFkappaB (unknown origin) expressed in LPS-stimulated HEK293-NF-kappaB-luc cells assessed as luminescence signals measured by relative light units at 10 ug/mL pre-treated for 4 hrs before LPS challenge for 24 hrs by luciferase assay", "type": "cell-based"}, "Dipeptidyl peptidase 4": {"molecular_target": "Dipeptidyl peptidase 4 (Homo sapiens, UniProt P27487)", "sequence (P27487 whole entry)": "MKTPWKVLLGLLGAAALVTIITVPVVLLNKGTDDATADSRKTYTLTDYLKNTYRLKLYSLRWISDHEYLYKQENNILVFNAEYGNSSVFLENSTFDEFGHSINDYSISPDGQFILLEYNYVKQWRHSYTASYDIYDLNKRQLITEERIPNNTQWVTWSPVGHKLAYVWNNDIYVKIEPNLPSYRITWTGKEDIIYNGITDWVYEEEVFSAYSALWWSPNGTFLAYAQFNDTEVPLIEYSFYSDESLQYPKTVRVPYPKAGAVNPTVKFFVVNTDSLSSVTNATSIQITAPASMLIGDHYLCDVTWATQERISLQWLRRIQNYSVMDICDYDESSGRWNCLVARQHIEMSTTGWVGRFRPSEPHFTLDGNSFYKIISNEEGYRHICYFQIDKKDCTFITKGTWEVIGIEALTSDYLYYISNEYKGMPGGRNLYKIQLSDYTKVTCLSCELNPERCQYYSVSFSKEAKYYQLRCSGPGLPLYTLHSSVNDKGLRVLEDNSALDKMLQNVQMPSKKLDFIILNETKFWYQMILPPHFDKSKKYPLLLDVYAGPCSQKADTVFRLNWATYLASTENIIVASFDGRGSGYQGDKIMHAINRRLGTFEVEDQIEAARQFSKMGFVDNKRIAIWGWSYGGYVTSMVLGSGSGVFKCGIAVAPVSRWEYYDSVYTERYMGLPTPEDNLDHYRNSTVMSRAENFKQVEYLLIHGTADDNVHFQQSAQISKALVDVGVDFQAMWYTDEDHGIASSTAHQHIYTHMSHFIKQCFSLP", "test": "Inhibition of DPP4 in human plasma using Gly-Pro-AMC substrate incubated for 20 mins by fluorometry"}}, "note": "pIC50: −log10 of the molar value. Calls of active or inactive are those of the source. The rule behind the calls is not given here.", "data": [{"smiles": "C[C@H]1[C@H]2[C@H]3CC[C@@H]4[C@@]5(C)CC[C@H](O[C@@H]6O[C@H](CO)[C@@H](O)[C@H](O)[C@H]6O)C(C)(C)[C@@H]5CC[C@@]4(C)[C@]3(C)CC[C@@]2(CO)CC[C@]1(C)O", "values": [{"measurement": "RLU", "setting": "[1]", "value": 0.5}, {"measurement": "RLU", "setting": "[2]", "value": 0.47}, {"measurement": "RLU", "setting": "[3]", "value": 0.18}, {"measurement": "RLU", "setting": "[4]", "value": 0.24}]}, {"smiles": "CC1(C)C=C2[C@H]3CC[C@@H]4[C@@]5(C)CC[C@H](O[C@@H]6O[C@H](CO)[C@@H](O)[C@H](O)[C@H]6O[C@@H]6O[C@H](CO)[C@@H](O)[C@H](O)[C@H]6O)C(C)(C)[C@@H]5CC[C@@]4(C)[C@]3(C)CC[C@@]2(C(=O)O[C@@H]2O[C@H](CO)[C@@H](O)[C@H](O)[C@H]2O)CC1", "values": [{"measurement": "RLU", "setting": "[1]", "value": 0.72}, {"measurement": "RLU", "setting": "[2]", "value": 0.49}, {"measurement": "RLU", "setting": "[3]", "value": 0.01}, {"measurement": "RLU", "setting": "[4]", "value": 0.06}]}, {"smiles": "CC1(C)CC[C@]2(C(=O)O[C@@H]3O[C@H](CO)[C@@H](O)[C@H](O)[C@H]3O)[C@H](O)C[C@]3(C)C(=CC[C@@H]4[C@@]5(C)CC[C@H](O[C@@H]6O[C@H](CO)[C@@H](O)[C@H](O)[C@H]6O[C@@H]6O[C@H](CO)[C@@H](O)[C@H](O)[C@H]6O)C(C)(C)[C@@H]5CC[C@]43C)[C@@H]2C1", "values": [{"measurement": "Activity", "setting": "[1]", "value": "inactive"}, {"measurement": "Activity", "setting": "[2]", "value": "inactive"}, {"measurement": "Activity", "setting": "[3]", "value": "inactive"}, {"measurement": "Activity", "setting": "[4]", "value": "inactive"}]}, {"smiles": "C=C(C)[C@@H]1CC[C@]2(C(=O)O[C@@H]3O[C@H](CO)[C@@H](O)[C@H](O)[C@H]3O)CC[C@]3(C)[C@H](CC[C@@H]4[C@@]5(C)CC[C@H](O[C@@H]6O[C@H](CO)[C@@H](O)[C@H](O)[C@H]6O)C(C)(C)[C@@H]5CC[C@]43C)[C@@H]12", "values": [{"measurement": "Activity", "setting": "[1]", "value": "inactive"}, {"measurement": "Activity", "setting": "[2]", "value": "inactive"}, {"measurement": "Activity", "setting": "[3]", "value": "inactive"}, {"measurement": "Activity", "setting": "[4]", "value": "inactive"}]}, {"smiles": "CC1(C)CC[C@]2(C(=O)O[C@@H]3O[C@H](CO)[C@@H](O)[C@H](O)[C@H]3O)CC[C@]3(C)C(=CC[C@@H]4[C@@]5(C)CC[C@H](O[C@@H]6O[C@H](CO)[C@@H](O)[C@H](O)[C@H]6O[C@@H]6O[C@H](CO)[C@@H](O)[C@H](O)[C@H]6O)C(C)(C)[C@@H]5CC[C@]43C)[C@@H]2C1", "values": [{"measurement": "RLU", "setting": "[1]", "value": 0.59}, {"measurement": "RLU", "setting": "[2]", "value": 0.47}, {"measurement": "RLU", "setting": "[3]", "value": 0.09}, {"measurement": "RLU", "setting": "[4]", "value": 0.23}]}, {"smiles": "CC1(C)CC[C@]2(C(=O)O[C@@H]3O[C@H](CO)[C@@H](O)[C@H](O)[C@H]3O)CC[C@]3(C)C(=CC[C@@H]4[C@@]5(C)CC[C@H](O[C@@H]6O[C@H](CO)[C@@H](O)[C@H](O)[C@H]6O)C(C)(C)[C@@H]5CC[C@]43C)[C@@H]2C1", "values": [{"measurement": "Activity", "setting": "[1]", "value": "inactive"}, {"measurement": "Activity", "setting": "[2]", "value": "inactive"}, {"measurement": "Activity", "setting": "[3]", "value": "inactive"}, {"measurement": "Activity", "setting": "[4]", "value": "inactive"}]}, {"smiles": "CC#CC#CC#C/C=C/C=C/C(CCO)O[C@@H]1O[C@H](CO)[C@@H](O)[C@H](O)[C@H]1O", "note": "(some centres not stated)", "values": [{"measurement": "pIC50", "setting": "Dipeptidyl peptidase 4", "value": "< 4.00"}]}, {"smiles": "C[C@]12CCC(=O)C=C1CC[C@@H]1[C@@H]2[C@@H](O)C[C@@]2(C)[C@H]1CC[C@]2(O)C(=O)CO", "values": [{"measurement": "RLU", "setting": "[1]", "value": 0.64}, {"measurement": "RLU", "setting": "[2]", "value": 0.45}, {"measurement": "RLU", "setting": "[3]", "value": 0.15}, {"measurement": "RLU", "setting": "[4]", "value": 0.32}]}, {"smiles": "CC1(C)CC[C@]2(C(=O)O[C@@H]3O[C@H](CO)[C@@H](O)[C@H](O)[C@H]3O)[C@H](O)C[C@]3(C)C(=CC[C@@H]4[C@@]5(C)CC[C@H](O[C@@H]6O[C@H](CO)[C@@H](O)[C@H](O)[C@H]6OS(=O)(=O)O)C(C)(C)[C@@H]5CC[C@]43C)[C@@H]2C1", "values": [{"measurement": "RLU", "setting": "[1]", "value": 0.07}, {"measurement": "RLU", "setting": "[2]", "value": 0.23}, {"measurement": "RLU", "setting": "[3]", "value": -0.01}, {"measurement": "RLU", "setting": "[4]", "value": 0.16}]}, {"smiles": "C=CC(O)C(/C=C/C#CC#CC#CC)O[C@@H]1O[C@H](CO)[C@@H](O)[C@H](O)[C@H]1O", "note": "(some centres not stated)", "values": [{"measurement": "pIC50", "setting": "Dipeptidyl peptidase 4", "value": "< 4.00"}]}, {"smiles": "CC(C)[C@H]1C[C@H]2O[C@@]2(C)[C@@H](O)[C@H]1O[C@@H]1O[C@H](CO)[C@@H](O)[C@H](O)[C@H]1O", "note": "(relative stereo)", "values": [{"measurement": "Activity", "setting": "[1]", "value": "inactive"}, {"measurement": "Activity", "setting": "[2]", "value": "inactive"}, {"measurement": "Activity", "setting": "[3]", "value": "inactive"}, {"measurement": "Activity", "setting": "[4]", "value": "inactive"}]}, {"smiles": "CC1(C)[C@@H](O[C@@H]2O[C@H](CO)[C@@H](O)[C@H](O)[C@H]2O)CC[C@]2(C)[C@H]3CC=C4[C@@H]5C[C@](C)(CO)CC[C@]5(C)[C@@H](O)C[C@@]4(C)[C@]3(C)CC[C@@H]12", "values": [{"measurement": "Activity", "setting": "[1]", "value": "inactive"}, {"measurement": "Activity", "setting": "[2]", "value": "inactive"}, {"measurement": "Activity", "setting": "[3]", "value": "inactive"}, {"measurement": "Activity", "setting": "[4]", "value": "inactive"}]}, {"smiles": "CC1(C)CC[C@]2(C(=O)O[C@@H]3O[C@H](CO)[C@@H](O)[C@H](O)[C@H]3O)[C@H](O)C[C@]3(C)C(=CC[C@@H]4[C@@]5(C)CC[C@H](O[C@@H]6O[C@H](CO)[C@@H](O)[C@H](O)[C@H]6O)C(C)(C)[C@@H]5CC[C@]43C)[C@@H]2C1", "values": [{"measurement": "RLU", "setting": "[1]", "value": 0.5}, {"measurement": "RLU", "setting": "[2]", "value": 0.33}, {"measurement": "RLU", "setting": "[3]", "value": 0.08}, {"measurement": "RLU", "setting": "[4]", "value": 0.22}]}, {"smiles": "C[C@H]1[C@H]2[C@H]3CC[C@@H]4[C@@]5(C)CC[C@H](O[C@@H]6O[C@H](CO)[C@@H](O)[C@H](O)[C@H]6O)C(C)(C)[C@@H]5CC[C@@]4(C)[C@]3(C)C[C@H](O)[C@@]2(C)CC[C@]1(C)O", "values": [{"measurement": "Activity", "setting": "[1]", "value": "inactive"}, {"measurement": "Activity", "setting": "[2]", "value": "inactive"}, {"measurement": "Activity", "setting": "[3]", "value": "inactive"}, {"measurement": "Activity", "setting": "[4]", "value": "inactive"}]}, {"smiles": "CC(C)[C@H]1C[C@H]2O[C@@]2(C)[C@@H](O)[C@H]1O[C@@H]1O[C@H](COC(=O)/C=C/c2ccc(O)c(O)c2)[C@@H](O)[C@H](O)[C@H]1O", "note": "(relative stereo)", "values": [{"measurement": "Activity", "setting": "[1]", "value": "inactive"}, {"measurement": "Activity", "setting": "[2]", "value": "inactive"}, {"measurement": "Activity", "setting": "[3]", "value": "inactive"}, {"measurement": "Activity", "setting": "[4]", "value": "inactive"}]}, {"smiles": "CC1(C)CC[C@]2(C(=O)O[C@@H]3O[C@H](CO)[C@@H](O)[C@H](O)[C@H]3O)[C@@H](O)C[C@]3(C)C(=CC[C@@H]4[C@@]5(C)CC[C@H](O[C@@H]6O[C@H](CO)[C@@H](O)[C@H](O)[C@H]6O)C(C)(C)[C@@H]5CC[C@]43C)[C@@H]2C1", "values": [{"measurement": "Activity", "setting": "[1]", "value": "inactive"}, {"measurement": "Activity", "setting": "[2]", "value": "inactive"}, {"measurement": "Activity", "setting": "[3]", "value": "inactive"}, {"measurement": "Activity", "setting": "[4]", "value": "inactive"}]}, {"smiles": "C=CC(C)(O)CC/C=C(\\C)CC/C=C(\\C)CO[C@@H]1O[C@H](CO)[C@@H](O)[C@H](O)[C@H]1O", "note": "(some centres not stated)", "values": [{"measurement": "RLU", "setting": "[1]", "value": 0.47}, {"measurement": "RLU", "setting": "[2]", "value": 0.26}, {"measurement": "RLU", "setting": "[3]", "value": 0.04}, {"measurement": "RLU", "setting": "[4]", "value": 0.21}]}]}
